Measured values: patent US20130203598A1, “USE OF PHOTOSYNTHETIC PIGMENT STABILIZING AGENTS TO REGULATE RIPENING AND QUALITY IN FRUITS AND VEGETABLES” (WASHINGTON STATE UNIVERSITY, priority 2011, published 2013)

Legend:
d'Anjou pears [1] = assay: Fruit firmness (pressure) of d'Anjou pears treated on trees before harvest, after commercial controlled atmosphere storage; type: in vivo, d'Anjou pear (Pyrus communis)
Method: FIG. 1. Fruit pressure of Bluestim™ (glycine betaine)-treated and untreated d'Anjou pears. D'Anjou pears were treated on trees with Bluestim™ concentrations of 0, 2.5, 5, and 10 lbs/acre on Aug. 17, 2010. Pears were harvested on 9/20/2010 and stored in commercial controlled atmosphere (CA) facilities. Pears were removed from storage on Jan. 7, 2011.
FIG. 3. Fruit pressure of Bluestim™ (glycine betaine)-treated and untreated d'Anjou pears. D'Anjou pears were treated on trees with Bluestim™ concentrations of 0 and 7.5 lbs/acre before harvest. Pears were harvested during the fall and stored in commercial controlled atmosphere (CA) facilities. Pears were removed from storage approximately 3 months later. Fruit firmness and % Brix were measured approximately 1 month after removal from storage.
In addition, the degree of firmness and/or lack thereof may be used as an indicator of ripeness. Fruit firmness is generally measured as kg/cm^−2 and suitable ranges of firmness values for unripened and ripe fruit and vegetables are well-known to those of skill in the art. Firmness may be measured using a variety of instruments such as various fruit firmness testers, force gauges, etc.

d'Anjou pears [2] = assay: Soluble sugars (% Brix) of d'Anjou pears treated on trees before harvest, after commercial controlled atmosphere storage; type: in vivo, d'Anjou pear (Pyrus communis); details: application before harvest, after CA storage (FIGS. 2 and 3)
Method: FIG. 2. Percent Brix of Bluestim™-treated pears after CA storage. Percent Brix were measured for all pear treatments after they were removed from the commercial CA storage conditions. FIG. 3. Fruit pressure of Bluestim™ (glycine betaine)-treated and untreated d'Anjou pears. D'Anjou pears were treated on trees with Bluestim™ concentrations of 0 and 7.5 lbs/acre before harvest. Pears were harvested during the fall and stored in commercial controlled atmosphere (CA) facilities. Pears were removed from storage approximately 3 months later. Fruit firmness and % Brix were measured approximately 1 month after removal from storage. In one embodiment, the methods of the invention are carried out before a fruit is “ripe”, i.e. before the fruit has a soluble solids content or “SSC” (which generally corresponds to sugar content) that is generally recognized in the art as suitable for a fruit of interest. […] Percent sugar content is typically measured, for example, in degrees Brix (symbol °Bx) which is the sugar content of an aqueous solution. […] Those of skill in the art will recognize that typical Brix values for fruit and vegetables to which glycine betaine is applied as described herein will vary widely depending on the type of fruit or vegetable, and will be able to readily able to determine suitable values. […]

[3] = use on comestible substances, consumption by humans or other animals; cited from earlier work

C[N+](C)(C)CC(=O)O [glycine betaine, N,N,N-trimethylglycine]
fruit firmness compared to untreated pears (d'Anjou pears [1]; application before harvest, 2.5, 5, 10 or 7.5 lbs/acre, same post-harvest storage conditions (FIGS. 1 and 3)): firmer pears compared to untreated pears
fruit firmness, dose dependence (d'Anjou pears [1]; application before harvest, 10 lbs/acre is the highest dose): increased the fruit firmness in a dose dependent manner, with applications of 10 lbs/acre yielding the firmest pears
reversibility of the effect on firmness and % BRIX as time passes (d'Anjou pears [1]; treated pears as time passes after treatment): soften and exhibit increases in % BRIX, indicating that the effect is temporary
soluble sugars measured in % BRIX (d'Anjou pears [2]): decrease in soluble sugars measured in % BRIX in a dose dependent manner
toxicity [3]: non-toxic
